Assay results reported in US20240018161A1, “MODULATORS OF CYSTIC FIBROSIS TRANSMEMBRANE CONDUCTANCE REGULATOR” (VERTEX PHARMACEUTICALS INCORPORATED, priority 2020, published 2024).

How the values were obtained:
[1] = from 3-[[4-(2,6-dimethylphenyl)-6-[(1-methyl-3,4,4a,5,6,7,8,8a-octahydro-2H-1,6-naphthyridin-8-yl)oxy]pyrimidin-2-yl]sulfamoyl]benzoic acid (Dihydrochloride salt); amide bond; 13-membered ring; HATU/DIEA; 25.0 °C
[2] = target: T1, CFTR-mediated chloride transport in human intestinal epithelial enteroid cells (Homo sapiens, UniProt P13569); experiment: Membrane potential dye, Enteroid Assay B; type: cell-based; conditions: for EC50: read-out: Ent. B EC50
Description: Base medium (ADF+++) consisted of Advanced DMEM/Ham's F12, 2 mM Glutamax, 10 mM HEPES, […] penicillin/streptomycin.
Bath 1 Buffer consisted of 1 mM MgCl2, 160 mM NaCl, 4.5 mM KCl, 10 mM HEPES, 10 mM Glucose, 2 mM CaCl2.
Chloride Free Buffer consisted of 1 mM Magnesium Gluconate, 2 mM Calcium Gluconate, 4.5 mM Potassium Gluconate, 160 mM Sodium Gluconate, 10 mM HEPES, 10 mM Glucose.
Bath1 Dye Solution consisted of Bath 1 Buffer, 0.04% Pluronic F127, 20 μM Methyl Oxonol, 30 μM CaCCinh-A01, 30 μM Chicago Sky Blue.
Chloride Free Dye Solution consisted of Chloride Free Buffer, 0.04% Pluronic F127, 20 μM Methyl Oxonol, 30 μM CaCCinh-A01, 30 μM Chicago Sky Blue.
3. Enteroid Cell Harvesting and Seeding
Cells were recovered in cell recovery solution, collected by centrifugation at 650 rpm for 5 min at 4° C., resuspended in TryPLE and incubated for 5 min at 37° C. Cells were then collected by centrifugation at 650 rpm for 5 min at 4° C. and resuspended in IEMM containing 10 μM ROCK inhibitor (RI).
5. Membrane Potential Dye, Enteroid Assay B
Briefly, cells were washed 5 times in Bath 1 Buffer. Bath 1 Dye Solution was added and the cells were incubated for 25 min at room temperature. Following dye incubation, cells were washed 3 times in Chloride Free Dye Solution. Chloride transport was initiated by addition of Chloride Free Dye Stimulation Solution and the fluorescence signal was read for 15 min.

[3] = target: T1, CFTR-mediated chloride transport in human intestinal epithelial enteroid cells; experiment: Membrane potential dye, Enteroid Assay A; type: cell-based; conditions: for EC50: read-out: Ent. A EC50
In short: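 Membrane potential dye (20 μM methyl oxonol, with 30 μM CaCCinh-A01 and 30 μM Chicago Sky Blue) loaded 25 min at room temperature into ROCK-inhibitor-seeded human enteroid cells. Chloride-free stimulation buffer triggered transport, followed by 15 min fluorescence. % Activity relative to 3 μM/3 μM/300 nM triple-combination control.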

[4] = enteroid cells incubated with test compound 18-24 hours, acute 10 μM forskolin and 300 nM N-[2,4-bis(1,1-dimethylethyl)-5-hydroxyphenyl]-1,4-dihydro-4-oxoquinoline-3-carboxamide
[5] = percentage of chloride transport of triple combination control (1 μM (14S)-8-[3-(2-{Dispiro[2.0.2.1]heptan-7-yl}ethoxy)-1H-pyrazol-1-yl]-... trione based)
[6] = percentage of chloride transport of triple combination control (3 μM N-[(6-amino-2-pyridyl)sulfonyl]-6-(3-fluoro-5-isobutoxy-phenyl)-2-[(4S)-2,2,4-trimethylpyrrolidin-1-yl]pyridine-3-carboxamide based)

T1 sequence (P13569 with tags, fused parts or gaps DEL508-508): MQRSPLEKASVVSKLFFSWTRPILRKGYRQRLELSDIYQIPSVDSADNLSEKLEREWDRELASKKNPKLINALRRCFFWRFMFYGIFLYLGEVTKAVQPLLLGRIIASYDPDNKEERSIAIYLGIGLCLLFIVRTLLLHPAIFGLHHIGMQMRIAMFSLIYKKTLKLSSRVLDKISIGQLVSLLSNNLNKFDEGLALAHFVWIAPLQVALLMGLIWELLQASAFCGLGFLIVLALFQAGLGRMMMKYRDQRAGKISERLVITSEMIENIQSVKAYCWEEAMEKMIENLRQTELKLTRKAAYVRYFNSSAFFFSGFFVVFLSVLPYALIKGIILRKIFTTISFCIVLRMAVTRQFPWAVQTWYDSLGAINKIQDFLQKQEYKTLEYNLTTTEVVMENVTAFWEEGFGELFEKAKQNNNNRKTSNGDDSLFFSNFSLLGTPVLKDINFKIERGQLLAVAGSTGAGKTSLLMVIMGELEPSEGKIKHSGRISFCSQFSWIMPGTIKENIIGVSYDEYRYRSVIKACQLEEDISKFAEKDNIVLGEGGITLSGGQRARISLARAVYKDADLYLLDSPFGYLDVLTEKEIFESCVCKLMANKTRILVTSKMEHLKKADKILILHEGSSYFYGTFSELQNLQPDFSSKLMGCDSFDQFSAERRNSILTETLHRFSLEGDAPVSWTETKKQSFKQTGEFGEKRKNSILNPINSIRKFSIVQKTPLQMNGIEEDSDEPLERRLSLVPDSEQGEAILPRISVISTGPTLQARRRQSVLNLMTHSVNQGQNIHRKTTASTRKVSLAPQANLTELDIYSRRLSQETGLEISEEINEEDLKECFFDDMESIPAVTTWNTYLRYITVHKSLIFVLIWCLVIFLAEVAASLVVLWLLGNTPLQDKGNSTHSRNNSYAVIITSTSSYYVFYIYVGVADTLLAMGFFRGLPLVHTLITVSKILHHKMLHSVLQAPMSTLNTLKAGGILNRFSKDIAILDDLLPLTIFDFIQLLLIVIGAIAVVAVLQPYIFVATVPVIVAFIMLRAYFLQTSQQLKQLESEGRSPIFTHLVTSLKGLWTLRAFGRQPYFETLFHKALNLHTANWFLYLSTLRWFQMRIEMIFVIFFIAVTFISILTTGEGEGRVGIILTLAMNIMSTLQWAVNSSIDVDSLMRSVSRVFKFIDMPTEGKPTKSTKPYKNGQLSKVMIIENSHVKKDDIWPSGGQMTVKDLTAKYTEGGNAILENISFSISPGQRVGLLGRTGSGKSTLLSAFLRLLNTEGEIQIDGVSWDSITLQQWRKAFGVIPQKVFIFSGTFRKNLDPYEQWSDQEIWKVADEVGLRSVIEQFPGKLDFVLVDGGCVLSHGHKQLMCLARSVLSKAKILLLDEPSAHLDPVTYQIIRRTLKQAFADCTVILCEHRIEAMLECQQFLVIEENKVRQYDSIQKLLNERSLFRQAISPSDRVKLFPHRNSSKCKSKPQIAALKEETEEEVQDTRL

Ent. B Max Activity (%) ([2]; Enteroid Assay B)	EC50 ([2]; Enteroid Assay B)	Ent. A Max Activity (%) ([3]; Enteroid Assay A)	EC50 ([3]; Enteroid Assay A)	SMILES	also measured
+++ (+++ is >600%)	< 1 µM	+++ (+++ is >600%)	< 1 µM	Cc1cccc(C)c1-c1cc2nc(n1)NS(=O)(=O)c1cccc(c1)C(=O)N1Cc3cc(C(C)(C)C)ccc3C(C1)O2 (single isomer, unassigned) [Compound 183, 20-tert-butyl-12-(2,6-dimethylphenyl)-15-oxa-8λ^6-thia-1,9,11,25-tetraazapentacyclo[14.7.1.13,7.110,14.017,22]hexacosa-3,5,7(26),10,12,14(25),17,19,21-nonaene-2,8,8-trione]	
+++ (+++ is >600%)	< 1 µM	+++ (+++ is >600%)	< 1 µM	Cc1cccc(C)c1-c1cc2nc(n1)NS(=O)(=O)c1cccc(c1)C(=O)N1Cc3cc(C(C)(C)C)ccc3C(O2)[C@H]1CC(C)(C)C (stereo in doubt) [Compound 188, (16S,24R)-20-tert-Butyl-12-(2,6-dimethylphenyl)-24-(2,2-dimethylpropyl)-15-oxa-8λ^6-thia-1,9,11,25-tetraazapentacyclo[14.7.1.13,7.110,14.017,22]hexacosa-3(26),4,6,10(25),11,13,17,19,21-nonaene-2,8,8-trione]	
+++ (+++ is >600%)	< 1 µM			Cc1cccc(C)c1-c1cc2nc(n1)NS(=O)(=O)c1cccc(c1)C(=O)N1CCN(C)[C@H](CC(C)C)[C@H](C1)O2 [Compound 121, (16S,17R)-12-(2,6-Dimethylphenyl)-18-methyl-17-(2-methylpropyl)-15-oxa-8λ^6-thia-1,9,11,18,22-pentaazatetracyclo[14.4.1.13,7.110,14]tricosa-3(23),4,6,10(22),11,13-hexaene-2,8,8-trione]	
+++ (+++ is >600%)	< 1 µM			Cc1cccc(C)c1-c1cc2nc(n1)NS(=O)(=O)c1cccc(c1)C(=O)N1CCN(C(=O)CC(C)(C)C)[C@H](CC(C)C)[C@H](C1)O2 [Compound 122, (16S,17R)-18-(3,3-Dimethylbutanoyl)-12-(2,6-dimethylphenyl)-17-(2-methylpropyl)-15-oxa-8λ^6-thia-1,9,11,18,22-pentaazatetracyclo[14.4.1.13,7.110,14]tricosa-3(23),4,6,10(22),11,13-hexaene-2,8,8-trione]	
+++ (+++ is >600%)	< 1 µM	++ (++ is 30-60%)	1 to 3 µM	Cc1cccc(C)c1-c1cc2nc(n1)NS(=N)(=O)c1cccc(c1)C(=O)N1CCN(Cc3ccccc3)CC(C1)O2 (centres unmarked) [Compound 248]	
+++ (+++ is >600%)	< 1 µM			Cc1cccc(C)c1-c1cc2nc(n1)NS(=O)(=O)c1cccc(c1)C(=O)N1CCc3cc(C(C)(C)C)ccc3[C@@H](O2)[C@H]1CC(C)C [Compound 329]	
+++ (+++ is >600%)	< 1 µM	+++ (+++ is >600%)	< 1 µM	Cc1cccc(C)c1-c1cc2nc(n1)NS(=O)(=O)c1cncc(c1)C(=O)N1Cc3cc(C(C)(C)C)ccc3[C@H](O2)[C@H]1CC(C)C [Compound 331]	

Continued, molecule first:

SMILES	Ent. B Max Activity (%) ([2]; Enteroid Assay B)	EC50 ([2]; Enteroid Assay B)	Ent. A Max Activity (%) ([3]; Enteroid Assay A)	EC50 ([3]; Enteroid Assay A)	also measured
Cc1cccc(C)c1-c1cc2nc(n1)NS(=O)(=O)c1cccc(c1)C(=O)N1CC3CCCN(C)C3C(C1)O2 (centres unmarked)					ring closure, yield after HPLC [1]: 19%
Cc1cccc(C)c1-c1cc2nc(n1)NS(=N)(=O)c1cccc(c1)C(=O)N1CCN(CCC(C)(C)C)C[C@H](C1)O2 (single isomer, unassigned) [Compound 245, 18-(3,3-dimethylbutyl)-12-(2,6-dimethylphenyl)-8-imino-15-oxa-8λ^6-thia-1,9,11,18,22-pentaazatetracyclo[14.4.1.13,7.110,14]tricosa-3,5,7(23),10,12,14(22)-hexaene-2,8-dione]	+++ (+++ is >600%)	< 1 µM	++ (++ is 30-60%)	< 1 µM	
Cc1cccc(C)c1-c1cc2nc(n1)NS(=O)(=O)c1cccc(c1)C(=O)N1Cc3ccccc3[C@H](C1)O2 (stereo in doubt) [Compound 319]					EC50 [2, 4]: < 1 µM; Ent. B Max Activity (%) [2, 5]: +++ (+++ is >60%); EC50 [3, 4]: < 1 µM; Ent. A Max Activity (%) [3, 6]: +++ (+++ is >60%)
Cc1cccc(C)c1-c1cc2nc(n1)NS(=O)(=O)c1cccc(c1)C(=O)N1CCN(CCC(C)(C)C)C[C@H](C1)O2 [Compound 1, (16R)-18-(3,3-Dimethylbutyl)-12-(2,6-dimethylphenyl)-15-oxa-8λ^6-thia-1,9,11,18,22-pentaazatetracyclo[14.4.1.13,7.110,14]tricosa-3,5,7(23),10,12,14(22)-hexaene-2,8,8-trione]					EC50 [2, 4]: < 1 µM; Ent. B Max Activity (%) [2, 5]: +++ (+++ is >60%); EC50 [3, 4]: < 1 µM; Ent. A Max Activity (%) [3, 6]: +++ (+++ is >60%)
Cc1cccc(C)c1-c1cc2nc(n1)NS(=O)(=O)c1cccc(c1)C(=O)N1CCN[C@H](CC(C)C)[C@H](C1)O2 [Compound 118, (16S,17R)-12-(2,6-Dimethylphenyl)-17-(2-methylpropyl)-15-oxa-8λ^6-thia-1,9,11,18,22-pentaazatetracyclo[14.4.1.13,7.110,14]tricosa-3(23),4,6,10(22),11,13-hexaene-2,8,8-trione]	+++ (+++ is >600%)	< 1 µM			
Cc1cccc(C)c1-c1cc2nc(n1)NS(=O)(=O)c1cccc(c1)C(=O)N1CCN(C3CC4(CCCC4)C3)[C@H](CC(C)C)[C@H](C1)O2 [Compound 119, (16S,17R)-12-(2,6-dimethylphenyl)-17-(2-methylpropyl)-18-{spiro[3.4]octan-2-yl}-15-oxa-8λ^6-thia-1,9,11,18,22-pentaazatetracyclo[14.4.1.13,7.110,14]tricosa-3(23),4,6,10(22),11,13-hexaene-2,8,8-trione]	+++ (+++ is >600%)	< 1 µM			
Cc1cccc(C)c1-c1cc2nc(n1)NS(=O)(=O)c1cccc(c1)C(=O)N1CCN(C3CC4(CCCCC4)C3)[C@H](CC(C)C)[C@H](C1)O2 [Compound 120, (16S,17R)-12-(2,6-dimethylphenyl)-17-(2-methylpropyl)-18-{spiro[3.5]nonan-2-yl}-15-oxa-8λ^6-thia-1,9,11,18,22-pentaazatetracyclo[14.4.1.13,7.110,14]tricosa-3(23),4,6,10(22),11,13-hexaene-2,8,8-trione]	+++ (+++ is >600%)	< 1 µM			
Cc1cccc(C)c1-c1cc2nc(n1)NS(=N)(=O)c1cccc(c1)C(=O)N1CCN(C(=O)OC(C)(C)C)CC(C1)O2 (centres unmarked) [Compound 239, tert-Butyl 12-(2,6-dimethylphenyl)-8-imino-2,8-dioxo-15-oxa-8λ^6-thia-1,9,11,18,22-pentaazatetracyclo[14.4.1.13,7.110,14]tricosa-3,5,7(23),10,12,14(22)-hexaene-18-carboxylate]	+++ (+++ is >600%)	1 to 3 µM	+++ (+++ is >600%)	1 to 3 µM	
Cc1cccc(C)c1-c1cc2nc(n1)NS(=N)(=O)c1cccc(c1)C(=O)N1CCN(CCC(C)(C)C)CC(C1)O2 (centres unmarked) [Compound 243, 18-(3,3-Dimethylbutyl)-12-(2,6-dimethylphenyl)-8-imino-15-oxa-8λ^6-thia-1,9,11,18,22-pentaazatetracyclo[14.4.1.13,7.110,14]tricosa-3,5,7(23),10,12,14(22)-hexaene-2,8-dione]	+++ (+++ is >600%)	< 1 µM	+++ (+++ is >600%)	< 1 µM	
Cc1cccc(C)c1-c1cc2nc(n1)NS(=O)(=O)c1cccc(c1)C(=O)N1CCN(CCC(C)(C)C)C[C@@H]1CO2 [Compound 298]					EC50 [2, 4]: < 1 µM; Ent. B Max Activity (%) [2, 5]: +++ (+++ is >60%); EC50 [3, 4]: < 1 µM; Ent. A Max Activity (%) [3, 6]: +++ (+++ is >60%)
